Measurements as given in patent US20210087217A1, “NUCLEOTIDE HEMI-SULFATE SALT FOR THE TREATMENT OF HEPATITIS C VIRUS” (Atea Pharmaceuticals, Inc., priority 2017, published 2021).

Test: Storage of Compound 1 forms and amorphous salts at 25° C./60% RH for 14 days (HPLC, XRPD, observation)
Conditions: for Physical/chemical stability and appearance on storage: 25° C./60% RH, 14 days
Protocol: This initial characterization was followed by storage at 25° C./60% relative humidity (RH) for 14 days with analysis by […] and XRPD after 7 and 14 days. FIG. 4A is the XRPD after 14 days at 25° C./60% (RH).
The samples were then frozen with the solvent removed by lyophilization.
The samples were then subjected to storage at 25° C./60% relative humidity (RH) for 14 days with analysis by HPLC and XRPD after 7 (FIG. 4B) and 14 days (FIG. 5A).

SMILES | HPLC purity (0 days at 25° C./60% RH) | Observation (0 days at 25° C./60% RH) | Physical/chemical stability and appearance on storage | HPLC purity (7 days at 25° C./60% RH) | Observation (7 days at 25° C./60% RH) | HPLC purity (14 days at 25° C./60% RH) | Observation (14 days at 25° C./60% RH) | Hygroscopicity
CNc1nc(N)nc2c1ncn2[C@@H]1O[C@H](CO[P@@](=O)(N[C@@H](C)C(=O)OC(C)C)Oc2ccccc2)[C@@H](O)[C@@]1(C)F [Sample 1-1] | 98.6 | White solid | stable | 98.7 | White solid | 98.5 | White solid | 
CNc1nc(N)nc2c1ncn2[C@@H]1O[C@H](CO[P@@](=O)(N[C@@H](C)C(=O)OC(C)C)Oc2ccccc2)[C@@H](O)[C@@]1(C)F [Sample 1-2] | 99.1 | White solid | stable | 99.2 | White solid | 99.0 | White solid | 
CNc1nc(N)nc2c1ncn2[C@@H]1O[C@H](CO[P@@](=O)(N[C@@H](C)C(=O)OC(C)C)Oc2ccccc2)[C@@H](O)[C@@]1(C)F [Sample 1-3] | 99.7 | White solid |  | 99.6 | White solid | 99.4 | White solid | 
CNc1nc(N)nc2c1ncn2C1OC(COP(=O)(NC(C)C(=O)OC(C)C)Oc2ccccc2)C(O)C1(C)F.Cl (centres unmarked) [Sample 1-4] | 98.7 | White solid | physically and chemically stable | 98.8 | White solid | 98.6 | White solid | hygroscopic
CNc1nc(N)nc2c1ncn2C1OC(COP(=O)(NC(C)C(=O)OC(C)C)Oc2ccccc2)C(O)C1(C)F.O=S(=O)(O)O (centres unmarked) [Sample 1-5] | 98.4 | White solid | physically unstable | 55.7 | Sticky white |  | Sticky gum | 
CNc1nc(N)nc2c1ncn2C1OC(COP(=O)(NC(C)C(=O)OC(C)C)Oc2ccccc2)C(O)C1(C)F.CNc1nc(N)nc2c1ncn2C1OC(COP(=O)(NC(C)C(=O)OC(C)C)Oc2ccccc2)C(O)C1(C)F.O=S(=O)(O)O (centres unmarked) [Sample 1-9] | 98.7 | White solid | physically and chemically stable | 98.1 | White solid | 96.4 | White solid | 
